Test results reported in paper PMC10233092, “Selective Janus kinase 1 inhibition resolves inflammation and restores hair growth offering a viable treatment option for alopecia areata” (Skin Health and Disease, 2023).
Several values for one entry are separate records, joined by “and”; a condition that tells them apart may be missing. Identical values can stand only once. Like-named read-outs stand apart in the source and are kept apart here.

Experiments:
[1] = test system: C3H/HeJ mouse model of AA; assay: Circulating cytokines in mouse plasma, Luminex; format: in vivo; conditions: at 4 weeks
Procedure: A Luminex assay kit from Merck Millipore (Cat# MTH17MAG‐47K) was used and the analysis carried out according to the supplier protocols.

[2] = test system: C3H/HeJ mouse model of AA; assay: Skin histopathology and hair follicle analysis in AA mice; format: in vivo; conditions: for skin inflammation, result in words: AA mice, oral daily servings (systemic exposure); for Follicle width / Number of hair follicles per section (hypodermal): individual mice and Mean
Procedure: A 1 cm^2 area of skin was excised from the right dorsal surface and fixed in 10% neutral buffered formalin for 24 h before processing and embedding in paraffin wax according to standard procedures. Vertical sectioning was chosen to allow for optimal detection of inflammatory cells whilst enabling follicular counts. 3 μm longitudinal sections were cut and stained with haematoxylin and eosin for histopathological analysis. Skin sections were scanned using an Aperio Scanscope. CD8 and NKG2D in situ hybridization (ISH) was carried out using the RNAScope technique[48] according to the manufacturer's protocols. Briefly, tissue sections were deparaffinised and incubated with epitope retrieval solution 2 for 15 min at 88°C followed by ACD protease for 10 min before hybridization with probe Mm‐Klrk1 (ACD, Cat.No.430808) and probe Mm‐Cd8a‐C2 (ACD, Cat.No. 401688‐C2) or duplex negative control probes Mm‐DapB (ACD, Cat.No. 320758). Bound probe was visualized following amplification with RNAScope 2.5 LS Duplex Reagent Kit‐(RED/BROWN) (ACD Cat.No. 322440). Staining was visualized by light microscopy. Number of hair follicles and hair follicle width were analyzed using ImageJ software edition ImageJ2. Images were imported using the bio‐format importer plug in. The number of follicles were counted using the cell counter plugin. All follicles on all sections in the dermal fat layer were counted. Follicle width was calculated with use of the circle tool to capture follicle area and from it calculate the width. All follicles on all sections in the dermal fat layer were included in the width analysis.

[3] = test system: C3H/HeJ mouse model of AA; assay: Cellularity and flow cytometry of spleen and skin draining lymph nodes; format: in vivo; conditions: AA mice
Procedure: Cutaneous lymph nodes and spleens from mice treated either orally or topically (treated and untreated side, respectively) were pooled and minced in DPBS/2% FBS/2 mM EDTA, filtered through […] strainers and spun at 350 g for 5 min. Blood was collected in EDTA‐coated tubes and red blood cells were lysed using BD FACS lysing solution (as was red blood cells from spleen single cell suspensions). Cell differential were obtained from haematology analyzer Sysmex XE‐2100 (Sysmex Corporation, Japan). Equal cell numbers for each sample were incubated with anti‐mouse CD16/CD32 block to prevent unspecific binding and then stained for 30 min at 4°C with the following anti‐mouse antibodies (all from BD); FITC CD3e (145‐2C11), APC‐Cy7 TCRβ (H‐57‐597), BV510 or BV786 CD8α (53‐6.7), BV711 NKG2D (Cx5), BUV395 CD4 (GK1.5), BV711 or BV605 CD44 (IM7), BUV395 CD45 (30‐F11), PerCP‐Cy5.5 CD19 (1D3) and PE‐Cy7 CD62L (MEL‐14). […] The cells were analyzed on a BD LSRII flow cytometer and analysis was performed with FlowJo (Tree Star) software.

[4] = C3H/HeJ, mouse, in vivo
[5] = test system: Human Peripheral Blood Mononuclear Cells (PBMCs); assay: Cytokine release from anti-CD3-stimulated human PBMCs; format: cell-based; conditions: anti-CD3, 40-48h, 4 healthy donors, linear regression
Procedure: Human Peripheral Blood Mononuclear Cells (PBMCs) were isolated by Sepmate technique (Stemcell Technologies) from heparinized venous blood from healthy volunteers. Primary human CD8^+ T‐cells were further isolated using a CD8^+ T cell Isolation Kit according to protocol (Miltenyi Biotec). Experiments were approved by the local ethical committee in Gothenburg (033‐11).
Soluble anti‐CD28 were added to the CD8^+ cultures to facilitate co‐stimulation. After 40–48 h, supernatants were harvested for mediator analysis and the cells were washed and resuspended in RLT buffer (Qiagen) for RNA isolation.
Analysis of human cytokine panels was carried out using a Luminex assay kit from Merck Millipore (Cat# HCYTMAG‐60K‐PX41) and Mesoscale Discovery (MSD) immunoassay kits (Cat# K211AEB‐2 and K15049D) as recommended in the respective supplier protocols.

[6] = Local JAK1i group, Mean±95% CI, n=6
[7] = Systemic JAK1i group, Mean±95% CI, n=6
[8] = 8w off Tx (4 weeks oral treatment, then 8 weeks off)
[9] = 8w off Tx (4 weeks oral treatment, then 8 weeks off), mean
[10] = Systemic JAK1i, after 4 weeks oral treatment
[11] = Systemic JAK1i, after 4 weeks oral treatment, mean

For COCC(C(=O)Nc1cccc2c(-c3nc(Nc4cccc(S(C)(=O)=O)c4F)ncc3F)c[nH]c12)N1CCN(C)CC1 (stereo not drawn) [Cmpd C], the “IFN-γ in mouse plasma” value [1, 6] was 42 (±14) pg/mL, the “IL-1β in mouse plasma” value [1, 6] was 2.4 (±0.5) pg/mL and the “IL-2 in mouse plasma” value [1, 6] was 6.2 (±1.6) pg/mL. For the same compound, the “IL-10 in mouse plasma” value [1, 6] was 2.9 (±1.4) pg/mL, the “IL-13 in mouse plasma” value [1, 6] was 37 (±2.9) pg/mL and the “IL-17A in mouse plasma” value [1, 6] was 15 (±2.4) pg/mL. For the same compound, the “IL-22 in mouse plasma” value [1, 6] was 35 (±25) pg/mL, the “IL-23 in mouse plasma” value [1, 6] was 148 (±95) pg/mL and the “IL-33 in mouse plasma” value [1, 6] was 76 (±58) pg/mL. For the same compound, the “TNFα in mouse plasma” value [1, 6] was 7.3 (±0.8) pg/mL, the “IL-6 in mouse plasma” value ([1]; Local JAK1i group, only one value within detection range) was 2.8 (±NA) pg/mL and the “IFN-γ in mouse plasma” value [1, 7] was 49 (±21) pg/mL. For the same compound, the “IL-2 in mouse plasma” value [1, 7] was 4.5 (±1.5) pg/mL, the “IL-6 in mouse plasma” value [1, 7] was 2.9 (±2.3) pg/mL and the “IL-10 in mouse plasma” value [1, 7] was 2.4 (±0.7) pg/mL. The “IL-13 in mouse plasma” value [1, 7] was 33 (±13) pg/mL, the “IL-17A in mouse plasma” value [1, 7] was 15 (±4.2) pg/mL and the “IL-22 in mouse plasma” value [1, 7] was 42 (±31) pg/mL. For the same compound, the “IL-23 in mouse plasma” value [1, 7] was 206 (±333) pg/mL, the “IL-33 in mouse plasma” value [1, 7] was 32 (±17) pg/mL and the “TNFα in mouse plasma” value [1, 7] was 6.3 (±2.0) pg/mL. The “IL-1β in mouse plasma” value ([1]; Systemic JAK1i group, only one value within detection range) was 2.0 (±NA) pg/mL, the “skin inflammation, result in words” value [2] was “resolved inflammation” and the “hypercellularity of skin draining LNs and spleen” value ([3]; systemic (oral 12.5 mg/kg/day, 2 weeks)) was “drastically reduced”. The “hypercellularity of skin draining LNs and spleen” value ([3]; topical treatment (0.01% cream, 2 weeks)) was “only marginally affected”, the “estimated average free exposure in plasma over IC50” value [4] was 0.02 fold IC50 and the “estimated average free exposure in skin over IC50” value [4] was 0.43 fold IC50. The “estimated average free exposure in plasma over IC50” value ([4]; po, 2 weeks) was 1.4 fold IC50 and the “estimated average free exposure in skin over IC50” value ([4]; po, 2 weeks) was 0.5 fold IC50.

In the case of Cc1cnc(Nc2cccnc2F)nc1-c1c[nH]c2c(NC(=O)[C@@H](C)N3CCN(C)CC3)cccc12 [Cmpd A], the “release of TNFα, IL-1RA, IP-10, IL-17 and MIP-1β from PBMC compared with Ruxo and Tofa” value [5] is reported as “significantly differently released”, the Follicle width [2, 8] is reported as 36 μm and 26 μm and 38 μm and 31 μm and 35 μm and the “Number of hair follicles per section (hypodermal)” value (“Number … per section (hypodermal)” below) [2, 8] is reported as 51 and 595 and 35 and 9 and 44 and 48. The Follicle width [2, 9] was 32 μm, the “Number … per section (hypodermal)” value [2, 9] was 130 and the “skin inflammation, result in words” value [2] was “resolution of inflammation in the skin”. The Follicle width [2, 10] was 28 μm and 26 μm and 29 μm and 25 μm, the “Number … per section (hypodermal)” value [2, 10] was 150 and 542 and 263 and 363 and 20 and 288 and the Follicle width [2, 11] was 27 μm. For the same compound, the “Number … per section (hypodermal)” value [2, 11] was 271.
